# Key:
# healthy volunteers = conditions: cited from earlier work; for adverse effects in healthy volunteers: up to 5 g (5000 mg per day)
# [1] = Kidney function test in the Parkinson's Disease patient; assay type: in vivo, human; conditions: patient on t-RES; data not shown
# [2] = tested on: monoamine oxidase A (MAO-A), MAO-B; conditions: rat brain; cited from earlier work
# [3] = International Normalized Ratio (INR) anticoagulation test in the Parkinson's Disease patient; assay type: in vivo, human; conditions: for INR: ref. range 0.8-1.2
# Description: (§1) As described in detail below, the parameters used to measure these findings were basic observations of speech, gait, overall function and tremor before and after administering t-RES over a period of months using the author's Tremor Rating Scale (TRS) in addition to the UPDRS (Fahn, et al., Recent Developments in Parkinson's Disease, 1989). […] The International Normalized Ratio is a measure of clotting speed in the blood used especially as an indicator of Warfarin levels in the blood in patients with Atrial Fibrillation who need reduced clotting probability, to prevent strokes and pulmonary embolisms—but not so reduced as to increase the chances of hemorrhage, especially from trauma. The INR in a normal person ranges from 0.8 to 1.2 in an A-Fib patient the INR should be maintained between 2.0 and 3.0 (Avery, et al., Clin. Pharmacol. Ther., 2011).
# [4] = tested on: patient with stage four idiopathic Parkinson's Disease; experiment: Observation of a stage four Parkinson's Disease patient on t-RES with SINEMET (Tremor Rating Scale, UPDRS); assay type: in vivo, human
# Description: as §1
# In a particular embodiment, the effect of t-RES on a patient with stage four idiopathic Parkinson's Disease was observed. The patient was followed closely for fourteen months while receiving t-RES. t-RES was administered daily and changes in speech, handwriting, gait, leg movement, and dyskinesias were observed. […] Handwriting samples were taken before and after taking t-RES.
# Starting dose of ½ pill 3 times/day SINEMET® 25/100 and 4 pills/day SINEMET® CR 25/100. Doses were given every four hours starting at 7 am.
# Eleven months into the study, patient was taking 500 mg t-RES/day, considered the lowest mega-dose, plus the added 100 mg general polyphenols which are mixed into each 125 mg t-RES capsule.
# This was achieved using a scale devised by the inventor, with three states: tremor, no dyskinesia (T, ND=0); non-tremor, no dyskinesia (NT, ND=1); and dyskinesia, no tremor (D, NT=2). The patient's state was recorded every half hour from 7 am to 10 pm by the author and caregivers on all days practicable.
# Daily numbers from the inventor's 0-2 Tremor Rating Scale (TRS) scale were then tallied and entered into the Unified Parkinson's Disease Rating Scale (UPDRS) for comparison.
# The doses of t-RES, SINEMET® and other supplements were also noted, with adjustments being made as necessary. The results were then examined for overall changes observed when the t-RES dose was increased every few months as shown in FIG. 2.
# [5] = tested on: amyloid plaques in mouse brain; conditions: dietary supplementation, transgenic model of Alzheimer's Disease; cited from earlier work
# [6] = tested on: patient with Parkinson's Disease; experiment: Tolerability of other drugs and supplements in the Parkinson's Disease patient
# Description: Patients on the anticoagulant warfarin are expected to have a reading between 2 and 3, with three being the least coagulated.
# patients = conditions: some patients; cited from earlier work
# [7] = mice; cited from earlier work
# [8] = carbidopa with levodopa; cited from earlier work
smiles,measurement,setting,value
"Oc1ccc(/C=C/c2cc(O)cc(O)c2)cc1 [t-RES, 3,5,4′-trihydroxy-trans-stilbene]",adverse effects in healthy volunteers,healthy volunteers,no adverse effects
same,Kidney function,[1],within the normal range
same,inhibition of MAO-A compared with MAO-B,[2],slightly more than MAO-B
same,INR,"[3]; 250 mg t-Res + 81 mg/day aspirin, Oct. 26, 2010",1
same,INR score (blood coagulation),"[3]; 500 mg followed by 625 mg t-RES, eight and 12 months into the study, normal range 0.8-1.2",1
same,INR,"[3]; 500 mg t-Res, Mar. 14, 2011",1.0
same,INR,"[3]; 625 mg t-Res, Jul. 6, 2011",1.0
same,Total Levodopa per day,"[4]; 14 months post t-RES (625 mg/day), September 2011, 550 mg before t-RES",day = 500 mg max
same,"tremors and dyskinesias, share of the day","[4]; UPDRS ratings, t-RES plus SINEMET, FIG. 2, rarely over",≤ 25 % of the day
same,"patient's ""on"" time, share of the day","[4]; UPDRS-based, t-RES plus SINEMET, FIG. 2",75 % of the day
same,dyskinesias on t-RES dose increase,"[4]; each increase of t-RES by 125 mg/day, with SINEMET, FIG. 2, FIG. 3",dyskinesias increased
same,need for SINEMET per day after starting t-RES,"[4]; first few days of t-RES, from 1½ tablets per day (150 mg levodopa) to one tablet per day",100 mg levodopa
same,cognition and speech,[4]; following first administration of t-RES (125 mg capsule),overnight improvement in cognition and speech
same,hallucinations,[4]; soon after beginning t-RES,completely eliminated on most days
same,amyloid plaques in mouse brain,[5],reduce the number of amyloid plaques
"Oc1ccc(C=Cc2cc(O)cc(O)c2)cc1 [resveratrol, 3,5,4′-trihydroxy-stilbene]",reported adverse events,"healthy volunteers; 2000 mg twice daily, two-week study, eight healthy adults",minor diarrhea
same,adverse effects in healthy volunteers,healthy volunteers,no adverse effects
C#CCN(C)[C@H](C)Cc1ccccc1 [selegiline],tolerability in the patient,[6]; therapy in conjunction with SINEMET,neither was tolerated
C#CCN[C@@H]1CCc2ccccc21 [rasagiline],tolerability in the patient,"[6]; human, in vivo",neither was tolerated
C#CCN(C)[C@H](C)Cc1ccccc1 [deprenyl],extension of lifespan,patients,up to 10 years
N[C@@H](CCC(=O)N[C@@H](CS)C(=O)NCC(=O)O)C(=O)O [glutathione],symptoms on reducing glutathione,[4]; glutathione reduced while on t-RES and SINEMET,worsening of symptoms
Cc1ccc(NC(=O)c2ccc(CN3CCN(C)CC3)cc2)cc1Nc1nccc(-c2cccnc2)n1 [imatinib],crossing of the blood-brain barrier,[7],not able to cross the blood-brain barrier
"C[C@@](Cc1ccc(O)c(O)c1)(NN)C(=O)O [Carbidopa, carbidopa]",reduction of the amount of levodopa required to produce a given response,[8],about 75%

# Source: patent US9486430B2, “Treatment of neurodegenerative disease” (priority 2010, dated 2016)
